{"source": "patent US6335368B1", "about": "“Use of alverine for reducing wrinkles” (Societe L'Oreal S.A., priority 1999, dated 2002)", "system": "phrenic nerve/diaphragm isolated from rat (striated muscle)", "experiment": "Nerve/muscle junction (motor plate) model: isolated rat phrenic nerve/diaphragm preparation", "type": "cell-based", "details": "for inhibition at 100 µM: Rattus norvegicus", "description": "Activity of Alverine in a model of nerve/muscle junction (motor plate) measured in a preparation of phrenic nerve/diaphragm isolated from rat (striated muscle) (Pollard B. J. et al, Br. J. Anaesth., 1988, 61, 419-424). The phrenic nerve and the diaphragm are carefully isolated and placed in a 50 ml tank filled with survival fluid (Krebs-Henseleit fluid) maintained at a temperature of 37° C. and oxygenated using an oxygen/CO2 mixture (95/5). The variations in tension of the diaphragm are recorded with an initial preload of several grams. After a relaxation period of 30 min., the diaphragm is stimulated indirectly via the phrenic nerve. On each preparation, the effect of the test products was evaluated in a first stage as regards the contractions induced by indirect stimulation via stimulation of the phrenic nerve (0.1 to 0.5 volts, 0.3 ms, 0.1 Hz) at increasing and cumulative concentrations from 10^−9 M to 10^−4 M. In the event of an effect at the end of the test, the diaphragm is stimulated directly in order to determine whether or not the inhibition of the neurotransmission results from a pre-junctional blockage or a post-junctional blockage.", "note": "Read-outs that look alike come from different tables or passages of the source."}
{"smiles": "CCN(CCCc1ccccc1)CCCc1ccccc1", "note": "[Alverine, di(phenylpropyl)ethylamine]", "values": [{"measurement": "inhibition of contractions induced by the indirect stimulations", "setting": "10^−4 M", "result": "completely inhibits"}, {"measurement": "inhibition at 100 µM", "setting": "10^−4 M Alverine, contractions induced by indirect stimulation via phrenic nerve, 1st study, read-out: % of inhibition, indirect stimulation", "result": 100, "unit": "%"}, {"measurement": "inhibition at 100 µM", "setting": "10^−4 M Alverine, contractions induced by indirect stimulation via phrenic nerve, 2nd study, read-out: % of inhibition, indirect stimulation", "result": 100, "unit": "%"}, {"measurement": "inhibition at 100 µM", "setting": "10^−4 M Alverine, direct stimulation of the diaphragm, 1st study, read-out: % of inhibition, direct stimulation", "result": 61.4, "unit": "%"}, {"measurement": "inhibition at 100 µM", "setting": "10^−4 M Alverine, direct stimulation of the diaphragm, 2nd study, read-out: % of inhibition, direct stimulation", "result": 42.2, "unit": "%"}, {"measurement": "inhibition at 100 µM", "setting": "10^−4 M, read-out: inhibition of contractions induced by the direct stimulations", "result": "~50", "unit": "%"}]}
